Assay results from patent publication US20160045503A1, “FORMULATIONS CONTAINING REVERSIBLE COVALENT COMPOUNDS” (PRINCIPIA BIOPHARMA INC., priority 2012, published 2016).
Each block holds one compound with its values, some of them ahead of it.

How the values were obtained:
[1] = target: human recombinant Btk (Homo sapiens, UniProt Q06187); experiment: Btk Enzymatic Activity Assay (Caliper-based kinase assay); assay type: biochemical; conditions: human recombinant Btk 2 nM, ATP 40 uM, peptide substrate 1 uM, room temperature, 3 h
Method: A Caliper-based kinase assay (Caliper Life Sciences, Hopkinton, Mass.) was used to measure inhibition of Btk kinase activity of a compound of Formula (I). […] The reaction was then terminated with EDTA, final concentration 20 mM and the phosphorylated reaction product was quantified on a Caliper Desktop Profiler (Caliper LabChip 3000). […] This value is presented as the IC50.

[2] = tested on: protein target; experiment: Reversibility of Binding (compound in solution before and after denaturation or digestion of the target, HPLC-MS/MS); conditions: for Compound in solution in the denatured or digested state?: after denaturation with 5 M guanidine hydrochloride and digestion with trypsin; for compound in solution following perturbation of the target: perturbed state; for Compound in solution in the native state?: target in excess over compound
Method: The following approach was developed to differentiate compounds that form irreversible bonds with their targets, such as acrylamide compounds, from compound that bind reversibly. […] The reactions were then treated with perturbations including both denaturation with 5 M guanidine hydrochloride and digestion with trypsin, disrupting proper folding of the target. […] The concentration of compound in solution was assessed both preceding and following perturbation using high performance liquid chromatography (HPLC) coupled to tandem mass spectrometry.

[3] = Determination of Bioavailability, stomach (oral gavage) v. intraduodenal administration; assay type: in vivo, Rats; conditions: rat; for % increase: ID versus PO; for AUC / Cmax / bioavailability: plasma
Method: Rats with surgically implanted intra-duodenal catheters were obtained commercially. Rats were dosed with solution or suspension of (S)-2-(2-((4-amino-3-(2-fluoro-4-phenoxyphenyl)-1H-pyrazolo[3,4-d]pyrimidin-1-yl)methyl)pyrrolidine-1-carbonyl)-4-methyl-4-morpholinopent-2-enenitrile; via bolus injection: oral gavage was done to measure exposure after oral dosing, or dosing via administration through the intra-duodenal catheter to measure exposure bypassing the stomach. […] Blood was withdrawn at time points out to 24 hours and compound quantitated via LC/MS/MS to obtain plasma concentrations. PK parameters were calculated via commercially available software and measures of exposure were used to assess differences in dosing routes. The table below summarizes exposures as measured by area under the curve (AUC), concentration at its maximum (Cmax), and bioavailability.

[4] = 20 mg/kg, ID (intra-duodenal), 20 mg/kg in 15% cyclodextrin, Experiment 1
[5] = 20 mg/kg, ID (intra-duodenal), 20 mg/kg in 15% cyclodextrin, Experiment 2
[6] = 100 mg/kg, ID 100 mg/kg, 0.5% xanthum gum suspension
[7] = po, 20 mg/kg, 20 mg/kg in 15% cyclodextrin, Experiment 1
[8] = po, 20 mg/kg, 20 mg/kg in 15% cyclodextrin, Experiment 2
[9] = po, 100 mg/kg, PO 100 mg/kg, 0.5% xanthum gum suspension

Sequence of human recombinant Btk (Q06187 whole entry): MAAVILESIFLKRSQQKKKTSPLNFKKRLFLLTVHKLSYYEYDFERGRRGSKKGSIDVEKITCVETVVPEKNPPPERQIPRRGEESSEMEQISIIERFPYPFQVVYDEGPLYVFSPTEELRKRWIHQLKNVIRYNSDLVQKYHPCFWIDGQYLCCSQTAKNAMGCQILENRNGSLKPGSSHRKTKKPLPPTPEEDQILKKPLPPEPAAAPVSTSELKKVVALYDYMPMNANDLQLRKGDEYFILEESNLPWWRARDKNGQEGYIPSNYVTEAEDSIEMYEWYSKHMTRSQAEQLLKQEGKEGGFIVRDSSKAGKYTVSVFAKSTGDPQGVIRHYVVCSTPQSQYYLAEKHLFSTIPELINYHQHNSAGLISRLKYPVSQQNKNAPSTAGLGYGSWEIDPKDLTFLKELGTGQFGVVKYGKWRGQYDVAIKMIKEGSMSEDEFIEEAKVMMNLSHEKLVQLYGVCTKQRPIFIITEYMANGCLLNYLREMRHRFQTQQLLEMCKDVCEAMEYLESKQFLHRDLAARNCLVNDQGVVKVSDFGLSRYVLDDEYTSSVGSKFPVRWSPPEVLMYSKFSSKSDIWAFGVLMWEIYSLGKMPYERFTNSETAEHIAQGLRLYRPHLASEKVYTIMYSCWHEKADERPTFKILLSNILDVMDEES

IC50 [1]: 3.7 nM
Compound: N#CC(=CC1CC1)C(=O)N1CCCC1Cn1nc(-c2ccc(Oc3ccccc3)cc2)c2c(N)ncnc21 (stereo not shown) [Cpd 2, 2-(2-((4-amino-3-(4-phenoxyphenyl)-1H-pyrazolo[3,4-d]pyrimidin-1-yl)methyl)pyrrolidine-1-carbonyl)-3-cyclopropylacrylonitrile]

IC50 [1]: 1 nM
Compound: COc1cc(-c2nn(CC3CCCN3C(=O)C(C#N)=CC3CC3)c3ncnc(N)c23)ccc1Oc1ccc(Cl)c(Cl)c1 (stereo not shown) [Cpd 5]

IC50 [1]: 130 nM
Compound: CC(C)(C)C=C(C#N)C(=O)N1CCC(n2nc(-c3ccc(Oc4ccccc4)cc3)c3c(N)ncnc32)CC1 [Cpd 8, 2-(4-(4-amino-3-(4-phenoxyphenyl)-1H-pyrazolo[3,4-d]pyrimidin-1-yl)piperidine-1-carbonyl)-4,4-dimethylpent-2-enenitrile]

IC50 [1]: 5.4 nM
Compound: CC(C)(C)C=C(C#N)C(=O)N1CCCC1Cn1nc(-c2ccc(Oc3ccccc3)cc2)c2c(N)ncnc21 (stereo not shown) [Cpd 10, 2-(2-((4-amino-3-(4-phenoxyphenyl)-1H-pyrazolo[3,4-d]pyrimidin-1-yl)methyl)pyrrolidine-1-carbonyl)-4,4-dimethylpent-2-enenitrile]

Compound in solution in the denatured or digested state? [2]: yes
compound in solution following perturbation of the target [2]: returned to solution
Compound in solution in the native state? ([2]; before perturbation): no
Compound: N#CC(=CC1CC1)C(=O)N1CCC[C@@H]1Cn1nc(-c2ccc(Oc3ccccc3)cc2F)c2c(N)ncnc21 [Cpd 27A, (R)-2-(2-((4-amino-3-(2-fluoro-4-phenoxyphenyl)-1H-pyrazolo[3,4-d]pyrimidin-1-yl)methyl)pyrrolidine-1-carbonyl)-3-cyclopropylacrylonitrile]

IC50 [1]: 3 nM
Compound: N#CC(=CC1CC1)C(=O)N1CCC[C@H]1Cn1nc(-c2ccc(Oc3c(F)cccc3F)cc2F)c2c(N)ncnc21 [Cpd 44B, (S)-2-(2-((4-amino-3-(2-fluoro-4-(2,6-difluorophenoxy)phenyl)-1H-pyrazolo[3,4-d]pyrimidin-1-yl)methyl)pyrrolidine-1-carbonyl)-3-cyclopropylacylonitrile]

IC50 [1]: 1.4 nM
Compound: CNC(C)(C)C=C(C#N)C(=O)N1CCC[C@@H]1Cn1nc(C2(Oc3ccccc3)C=CC=CC2F)c2c(N)ncnc21 (stereo partly drawn) [Cpd 83A, (R)-2-(2-((4-amino-3-(2-fluoro-1-phenoxyphenyl)-1H-pyrazolo[3,4-d]pyrimidin-1-yl)methyl)pyrrolidine-1-carbonyl)-4-methyl-4-(methylamino)pent-2-enenitrile]

IC50 [1]: 52 nM
Compound: N#CC(=CC1(N)CC1)C(=O)N1CCC[C@@H]1Cn1nc(-c2ccc(Oc3ccccc3)cc2F)c2c(N)ncnc21 [Cpd 90A, (R)-2-(2-((4-amino-3-(2-fluoro-4-phenoxyphenyl)-1H-pyrazolo[3,4-d]pyrimidin-1-yl)methyl)pyrrolidine-1-carbonyl)-3-(1-aminocyclopropyl)acrylonitrile]

% increase ([3]; 20 mg/kg in 15% cyclodextrin, Experiment 1): 409%
% increase ([3]; 20 mg/kg in 15% cyclodextrin, Experiment 2): 232%
% increase ([3]; 100 mg/kg, 0.5% xanthum gum suspension): 220%
AUC [3, 4]: 630 ng·h/mL
Cmax [3, 4]: 1400 ng/mL
AUC [3, 5]: 1500 ng·h/mL
Cmax [3, 5]: 1650 ng/mL
bioavailability [3, 4]: 27%
bioavailability [3, 5]: 64.6%
AUC [3, 6]: 1900 ng·h/mL
Cmax [3, 6]: 870 ng/mL
bioavailability [3, 6]: 16.3%
AUC [3, 7]: 154 ng·h/mL
Cmax [3, 7]: 145 ng/mL
AUC [3, 8]: 647 ng·h/mL
Cmax [3, 8]: 406 ng/mL
bioavailability [3, 7]: 6.6%
bioavailability [3, 8]: 27.8%
AUC [3, 9]: 858 ng·h/mL
Cmax [3, 9]: 149 ng/mL
bioavailability [3, 9]: 7.4%
Compound: CC(C)(C=C(C#N)C(=O)N1CCC[C@H]1Cn1nc(-c2ccc(Oc3ccccc3)cc2F)c2c(N)ncnc21)N1CCOCC1 [Cpd 95B, (S)-2-(2-((4-amino-3-(2-fluoro-4-phenoxyphenyl)-1H-pyrazolo[3,4-d]pyrimidin-1-yl)methyl)pyrrolidine-1-carbonyl)-4-methyl-4-morpholinopent-2-enenitrile]

IC50 [1]: 6 nM
Compound: CC(C)C=C(C#N)C(=O)N1CCC[C@H]1Cn1nc(-c2ccc(Oc3cccc(F)c3F)cc2F)c2c(N)ncnc21 [Cpd 102B, (S)-2-(2-((4-amino-3-(4-(2,3-difluorophenoxy)-2-fluorophenyl)-1H-pyrazolo[3,4-d]pyrimidin-1-yl)methyl)pyrrolidine-1-carbonyl)-4-methylpent-2-enenitrile]

IC50 [1]: 25.5 nM
Compound: CNC(C)(C)C=C(C#N)C(=O)N1CCC[C@H]1Cn1nc(-c2ccc(Oc3cccc(F)c3F)cc2F)c2c(N)ncnc21 [Cpd 105B]

IC50 [1]: 34 nM
Compound: CC(C)(C)C=C(C#N)C(=O)N1CCC[C@H]1Cn1cc(-c2ccc(Oc3cccc(F)c3F)cc2)c2c(N)ncnc21 [Cpd 173B, (S)-2-(2-((4-amino-5-(4-(2,3-difluorophenoxy)phenyl)-7H-pyrrolo[2,3-d]pyrimidin-7-yl)methyl)pyrrolidine-1-carbonyl)-4,4-dimethylpent-2-enenitrile]

IC50 [1]: 6 nM
Compound: C[C@@H](Cn1nc(-c2ccc(Oc3ccccc3)cc2F)c2c(N)ncnc21)NC(=O)C(C#N)=CC(C)(C)N [Cpd 195, (S)-4-amino-N-(1-(4-amino-3-(2-fluoro-4-phenoxyphenyl)-1H-pyrazolo[3,4-d]-pyrimidin-1-yl)propan-2-yl)-2-cyano-4-methylpent-2-enamide]

Compound: C=CC(=O)N1CCC[C@@H](n2nc(-c3ccc(Oc4ccccc4)cc3)c3c(N)ncnc32)C1 [reference compound]
Compound in solution in the denatured or digested state? [2]: no
depletion of compound from solution in the native (folded) state ([2]; before perturbation): depleted from solution
compound in solution following perturbation of the target [2]: depleted from solution
Compound in solution in the native state? ([2]; before perturbation): no

Compound: (S)-4-amino-2-(2-((4-amino-3-(4-(2,3-difluorophenoxy)-2-fluorophenyl)-1H-pyrazolo[3,4-d]pyrimidin-1-yl)methyl)pyrimidine-1-carbonyl)-4-methylpent-2-enenitrile [Cpd 104B]
IC50 [1]: 20 nM
